# Results from US5783597A, “2,5-disubstituted thiophenes: inhibitors of 5-lipoxygenase and inducible cyclooxygenase (COX-2) enzymes, composition and use” (Ortho Pharmaceutical Corporation, priority 1997, dated 1998).
# Target: T1, 5-lipoxygenase (5-LO) (Rattus norvegicus, UniProt P12527)
# T1 construct: endogenous in cells; host or cells: intact RBL-1 (rat basophilic leukemia) cells, stimulated with calcium ionophore A23187
# T1 sequence (P12527 1-673): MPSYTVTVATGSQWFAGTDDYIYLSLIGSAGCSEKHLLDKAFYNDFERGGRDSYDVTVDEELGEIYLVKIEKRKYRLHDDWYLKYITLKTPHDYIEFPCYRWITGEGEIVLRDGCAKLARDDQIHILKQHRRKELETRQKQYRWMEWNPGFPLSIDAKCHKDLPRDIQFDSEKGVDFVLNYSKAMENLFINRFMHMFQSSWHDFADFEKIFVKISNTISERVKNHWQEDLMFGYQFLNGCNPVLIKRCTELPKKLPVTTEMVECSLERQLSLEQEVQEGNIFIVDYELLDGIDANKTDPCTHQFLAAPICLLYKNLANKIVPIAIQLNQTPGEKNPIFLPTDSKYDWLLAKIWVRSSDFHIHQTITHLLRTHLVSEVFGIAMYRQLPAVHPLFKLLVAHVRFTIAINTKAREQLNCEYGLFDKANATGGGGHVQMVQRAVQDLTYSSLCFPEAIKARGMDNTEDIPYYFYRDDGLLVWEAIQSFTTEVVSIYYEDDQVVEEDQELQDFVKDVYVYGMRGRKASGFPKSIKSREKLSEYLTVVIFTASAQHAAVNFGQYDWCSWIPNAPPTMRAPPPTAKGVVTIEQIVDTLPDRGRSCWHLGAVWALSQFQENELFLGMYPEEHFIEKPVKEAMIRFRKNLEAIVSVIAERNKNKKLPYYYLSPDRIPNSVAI
# Test: RBL-1 cell 5-lipoxygenase and cyclooxygenase - Homogenate (Procedure I)
# Type: biochemical
# Details: not given
# Description: RBL-1 cell 5-lipoxygenase and cyclooxugenase - Homogenate
# Rat basophilic leukemia cells (RBL-1; 5×10^7 viable cells/mL) were disrupted by homogenization on ice (four 20 sec bursts) with a Brinkman polytron. […] The homogenate was then centrifuged at 9,220×g for 48 minutes at 4° C. The pellet was discarded and the supernatant was saved as the source of enzymes. The supernatant was pre-incubated for five minutes at 37° C. in the presence of 2 mM of CaCl2 and compound or vehicle (1% DMSO). The conversion of AA into products by CO and LO was initiated by adding 10 μL (50 μCi) of 1-^14 C-AA to each tube and incubated at 37° C. for 20 minutes. The reaction was stopped by adjusting the pH of each sample to 3 to 3.5 with 2M formic acid. Samples were extracted with three volumes of chloroform to isolate the products of 5-LO formed during the reaction. Fractions were dried under nitrogen, then resuspended in 40 μL of chloroform and spotted onto silica gel HL plates. The plates were developed in A-9 solvent. The dried plates were analyzed using a Bioscan Imaging TLC scanner to determine the percentage of radiolabelled M converted to 5-HETE (LO product) and PGD2 (CO product) in each sample.
row,SMILES,IC50
1,CS(=O)(=O)Nc1ccc(Oc2cc(C(F)(F)F)ccc2Cl)s1 [Example 19],140 nM

# Same assay, conditions: RBL-1 homogenate supernatant, 5-HETE; read-out: Procedure I (5-LO) Homog. IC50
row,SMILES,IC50
1,CS(=O)(=O)Nc1ccc(SC2CCCCC2)s1 [Example 29],70 nM
2,CS(=O)(=O)Nc1ccc(Oc2cccc(Cl)c2)s1 [Example 8],60 nM
3,"CS(=O)(=O)Nc1ccc(Cc2ccccc2)s1 [Example 31, N-(5-Benzylthien-2-yl)methanesulfonamide]",110 nM
4,CS(=O)(=O)Nc1ccc(Oc2cccc3ccccc23)s1 [Example 21],70 nM
5,Cc1cccc(Oc2ccc(NS(C)(=O)=O)s2)c1 [Example 15],120 nM
6,CCCCCCCCS(=O)(=O)Nc1ccc(Oc2ccccc2)s1 [Example 26],300 nM
7,CSc1ccc(Oc2ccc(NS(C)(=O)=O)s2)cc1 [Example 4],100 nM
8,CS(=O)(=O)Nc1ccc(Oc2ccc(Cl)cc2Cl)s1 [Example 13],90 nM
9,CCCCCSc1ccc(NS(C)(=O)=O)s1 [Example 30],40 nM
10,Cc1cc(F)ccc1Oc1ccc(NS(C)(=O)=O)s1 [Example 16],90 nM
11,CS(=O)(=O)Nc1ccc(Oc2ccc(F)cc2F)s1 [Example 14],150 nM
12,CS(=O)(=O)Nc1ccc(Oc2cccc(F)c2)s1 [Example 3],160 nM
13,CC(C)c1cccc(Oc2ccc(NS(C)(=O)=O)s2)c1 [Example 20],610 nM
14,CS(=O)(=O)Nc1ccc(Oc2ccc(Cl)cc2)s1 [Example 12],75 nM
15,CS(=O)(=O)Nc1ccc(Oc2ccc(F)c(Cl)c2)s1 [Example 6],30 nM

# Target: T1, 5-lipoxygenase (5-LO)
# Test: RBL-1 cell 5-lipoxygenase and cyclooxygenase - Whole cells (Procedure II)
# Type: cell-based
# Details: not given
# Description: RBL-1 Cell 5-Lipoxygenase and cyclooxygenase - Whole cells
# The ability to inhibit 5-LO and CO in intact RBL-1 cells was also evaluated. […] Cells were collected by centrifugation, washed once in HBSS, and resuspended at a concentration of 1×10^5 cells/mL. Cells were incubated in the presence of vehicle or drug then centrifuged at 800×g for 10 minutes at 4° C. The supernatant was removed by aspiration and the cells were resuspended in 0.5 mL of HBSS. […] The conversion of M to 5-LO products was initiated by the addition of 10 μL (50 uCi) of 1-^14 C-AA. Products were isolated by acidification and extraction, followed by thin layer chromatography analysis as described above. Radioactive areas corresponding to authentic 5-LO (5-HETE) and CO (PGD2) products were quantitated by the Bioscan 2000 Imaging System.
row,SMILES,IC50
1,CS(=O)(=O)Nc1ccc(Oc2cc(C(F)(F)F)ccc2Cl)s1 [Example 19],1800 nM

# Same assay, conditions: intact RBL-1 cells, 5-HETE; read-out: Procedure II (5-LO) Wh Cell IC50
row,SMILES,IC50
1,CS(=O)(=O)Nc1ccc(SC2CCCCC2)s1 [Example 29],2390 nM
2,CS(=O)(=O)Nc1ccc(Oc2cccc(Cl)c2)s1 [Example 8],500 nM
3,"CS(=O)(=O)Nc1ccc(Cc2ccccc2)s1 [Example 31, N-(5-Benzylthien-2-yl)methanesulfonamide]",380 nM
4,CS(=O)(=O)Nc1ccc(Oc2cccc3ccccc23)s1 [Example 21],800 nM
5,Cc1cccc(Oc2ccc(NS(C)(=O)=O)s2)c1 [Example 15],310 nM
6,CCCCCCCCS(=O)(=O)Nc1ccc(Oc2ccccc2)s1 [Example 26],2900 nM
7,CSc1ccc(Oc2ccc(NS(C)(=O)=O)s2)cc1 [Example 4],660 nM
8,CS(=O)(=O)Nc1ccc(Oc2ccc(Cl)cc2Cl)s1 [Example 13],650 nM
9,CCCCCSc1ccc(NS(C)(=O)=O)s1 [Example 30],630 nM
10,Cc1cc(F)ccc1Oc1ccc(NS(C)(=O)=O)s1 [Example 16],1090 nM
11,CS(=O)(=O)Nc1ccc(Oc2ccc(F)cc2F)s1 [Example 14],730 nM
12,CS(=O)(=O)Nc1ccc(Oc2cccc(F)c2)s1 [Example 3],490 nM
13,CC(C)c1cccc(Oc2ccc(NS(C)(=O)=O)s2)c1 [Example 20],4700 nM
14,CS(=O)(=O)Nc1ccc(Oc2ccc(Cl)cc2)s1 [Example 12],660 nM
15,CS(=O)(=O)Nc1ccc(Oc2ccc(F)c(Cl)c2)s1 [Example 6],890 nM

# Target: T2, Human Prostaglandin H2 Synthase Typ II (Cox-2) (Homo sapiens, UniProt P35354)
# T2 construct: endogenous in cells; host or cells: ECV-304 cells treated with PMA and ionomycin for 16 hours
# T2 sequence (P35354 18-604): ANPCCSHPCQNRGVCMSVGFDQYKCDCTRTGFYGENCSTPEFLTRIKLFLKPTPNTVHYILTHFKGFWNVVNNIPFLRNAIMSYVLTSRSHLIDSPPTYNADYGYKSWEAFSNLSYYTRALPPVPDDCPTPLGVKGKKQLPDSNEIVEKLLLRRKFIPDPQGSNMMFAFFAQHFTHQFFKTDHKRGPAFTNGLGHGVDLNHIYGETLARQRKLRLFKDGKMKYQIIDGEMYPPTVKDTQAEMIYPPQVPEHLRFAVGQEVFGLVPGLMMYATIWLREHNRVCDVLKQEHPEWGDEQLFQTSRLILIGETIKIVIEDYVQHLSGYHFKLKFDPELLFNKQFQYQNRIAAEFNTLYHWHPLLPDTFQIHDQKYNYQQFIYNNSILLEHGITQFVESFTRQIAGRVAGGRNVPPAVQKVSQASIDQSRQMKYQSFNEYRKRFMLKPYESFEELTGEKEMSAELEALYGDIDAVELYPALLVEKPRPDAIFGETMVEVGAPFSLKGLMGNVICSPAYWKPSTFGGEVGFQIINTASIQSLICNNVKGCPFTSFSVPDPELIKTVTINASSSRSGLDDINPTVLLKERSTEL
# Test: Human Prostaglandin H2 Synthase Typ II (Cox-2) Whole Cell Assay, ECV-304 cells (Procedure III)
# Type: cell-based
# Details: @ 10 μM, ECV-304 whole cells; read-out: Procedure III (COX-2) Wh Cell, percent inhibition of PGE2 produced
# Description: Human Prostaglandin H2 Synthase Typ II (Cox-2) Whole Cell Assay (Multiple Concentrations)
# ECV-304 (human, endothelial, umbilical cord) cells are maintained in culture in a suitable medium, and are trypsinized and plated at a density of 1×10^6 cells per well of a 6 well plate prior to assay. Approximately 28 hours later, 50 μg/ml PMA and […] ionomycin (both final concentrations) are added to each well and incubated for an additional 16 hours. Vehicle or test compounds are incubated with the cells for five minutes prior to initiation of Cox-2 enzyme activity by the addition of 30 μM arachidonic acid. Ten minutes later, an aliquot of the supernatant is withdrawn and the amount of PGE2 present quantitated by radioimmunoassay. Activity, reported as percent inhibition of PGE2 produced, is calculated as follows: […]
row,SMILES,inhibition at 10 µM
1,"CS(=O)(=O)Nc1ccc(Cc2ccccc2)s1 [Example 31, N-(5-Benzylthien-2-yl)methanesulfonamide]",45%
2,CCCCCCCCS(=O)(=O)Nc1ccc(Oc2ccccc2)s1 [Example 26],8%
3,CSc1ccc(Oc2ccc(NS(C)(=O)=O)s2)cc1 [Example 4],39%
4,CS(=O)(=O)Nc1ccc(Oc2cccc(F)c2)s1 [Example 3],13%
5,CC(C)c1cccc(Oc2ccc(NS(C)(=O)=O)s2)c1 [Example 20],36%
6,CS(=O)(=O)Nc1ccc(Oc2cc(C(F)(F)F)ccc2Cl)s1 [Example 19],29%

# Same assay, conditions: ECV-304 whole cells, PGE2 produced; read-out: Procedure III (COX-2) Wh Cell IC50
row,SMILES,IC50
1,CS(=O)(=O)Nc1ccc(SC2CCCCC2)s1 [Example 29],9100 nM
2,CS(=O)(=O)Nc1ccc(Oc2cccc(Cl)c2)s1 [Example 8],10300 nM
3,CS(=O)(=O)Nc1ccc(Oc2cccc3ccccc23)s1 [Example 21],3000 nM
4,Cc1cccc(Oc2ccc(NS(C)(=O)=O)s2)c1 [Example 15],1690 nM
5,CS(=O)(=O)Nc1ccc(Oc2ccc(Cl)cc2Cl)s1 [Example 13],5800 nM
6,CCCCCSc1ccc(NS(C)(=O)=O)s1 [Example 30],2760 nM
7,Cc1cc(F)ccc1Oc1ccc(NS(C)(=O)=O)s1 [Example 16],1900 nM
8,CS(=O)(=O)Nc1ccc(Oc2ccc(F)cc2F)s1 [Example 14],1970 nM
9,CS(=O)(=O)Nc1ccc(Oc2ccc(Cl)cc2)s1 [Example 12],18000 nM
10,CS(=O)(=O)Nc1ccc(Oc2ccc(F)c(Cl)c2)s1 [Example 6],5300 nM
